Results on one compound are retold here after article PMC8172068 (PLoS ONE, 2021).

SMILES strings stand for the structures.

The assay has as its target Acinetobacter baumannii rAcpA (Acinetobacter baumannii, UniProt A0ABX6CG12). Kind of assay: rAcpA enzymatic kinetics with PNPP (Lineweaver-Burk). Format: biochemical. The method, then: Unless indicated otherwise, reaction mixtures contained 2.0 mM PNPP (Sigma Chemical Co.) or phosphorylated compounds (Sigma Chemical Co.), 0.20 M MES (Sigma Chemical Co.) buffer, pH 6.0, 2.0 mM NiCl2, and 0.080–0.30 μg total Acinetobacter baumannii rAcpA protein, and were brought to a final concentration of 0.186 μg/μL protein with addition of bovine serum albumin (BSA, BioRad Laboratories) in a total reaction volume of 200 μL (determination of released phosphate) or 300 μL (determination of released paranitrophenol). All incubations were carried out for 30 minutes at 37 °C after which time reactions were placed in an ice slurry for 3 minutes followed by addition of enzyme to the respective blanks and reactions were terminated by heating at 65 °C for 10 minutes followed by immersion in an ice slurry for 3 minutes. Released phosphate was determined by addition of 1.0 mL BIOMOL GREEN phosphate reagent (Enzo Life Sciences), and monitored at 620 nm using a Genesys 10 UV Scanning Spectrophotometer (Thermo Scientific). Paranitrophenol was monitored at 405 nm following addition of 1.7 mL 0.5 M Glycine buffer, pH 10. Following subtraction of blank values, paranitrophenol and released phosphate were quantitated using paranitrophenol and phosphate standard curves, respectively. All reactions, i.e., generation of paranitrophenol and release of free phosphate were linear with both time (30 minutes) and assay protein (0.30 μg, ~ 13.2 nM). Specific activity is expressed as nmoles paranitrophenol or free phosphate liberated mg^-1s^-1.
The effect of increasing PNPP substrate on Acinetobacter baumannii rAcpA activity was determined.
Fig 4 Determination of Km and Vmax. Enzymatic activity (0.149 μg rAcpA) was determined over a broad range of PNPP concentrations (0.10–10.0 mM) in replicates of five for each substrate concentration tested and corresponding blank. Km and Vmax values were derived from standard Lineweaver-Burk plot analysis. Error bars represent 1 standard deviation from the mean.

Setting [1] is: PNPP 0.10–10.0 mM, 0.149 μg rAcpA, Lineweaver-Burk plot.

Take `O=[N+]([O-])c1ccc(OP(=O)(O)O)cc1` [PNPP]: under setting [1], the Km worked out at 90 µM and the Vmax came to 19.2 pmol/s. Where the note is “calculated on the basis of 37 kDa”, the “turnover number (kcat)” value is 4.80 s⁻¹.

The Km is the concentration of substrate that gives half-maximal velocity. What is called Vmax is the rate approached at saturating substrate.
